# Assay results as given in patent US20240043450A1, “NEW COMPOUND” (JANSSEN PHARMACEUTICA NV, priority 2020, published 2024).
# Assays:
# NLRP3 = biological target: T1, NLRP3 (Homo sapiens, UniProt Q96P20); experiment: PBMC assay: IL-1β levels in supernatant of LPS-stimulated human PBMCs (MSD); type: cell-based; conditions: 30 min compound pre-incubation, 100 ng/ml LPS for 6 hrs, IL-1β in supernatant, read-out: IL-1B IC50
# T1 construct: human peripheral blood mononuclear cells (PBMCs) were isolated from blood; endogenous in cells; host or cells: primary human PBMCs from healthy donors
# Description: The activity of a compound according to the present invention can be assessed by in vitro methods.
# Peripheral venous blood was collected from healthy individuals and human peripheral blood mononuclear cells (PBMCs) were isolated from blood by Ficoll-Histopaque (Sigma-Aldrich, A0561) density gradient centrifugation. After isolation, PBMCs were stored in liquid nitrogen for later use. Upon thawing, PBMC cell viability was determined in growth medium (RPMI media supplemented with 10% fetal bovine serum, 1% Pen-Strep and 1% L-glutamine). […] PBMCs were added at a density of 7.5×10^4 cells per well and incubated for 30 min in a 5% CO2 incubator at 37° C. LPS stimulation was performed by addition of 100 ng/ml LPS (final concentration, Invivogen, tlrl-smlps) for 6 hrs followed by collection of cellular supernatant and the analysis of IL-1β […] and TNF cytokines levels […] via MSD technology according to manufacturers' guidelines (MSD, K15A0H).
# TNF = experiment: PBMC assay: TNF cytokine levels in supernatant of LPS-stimulated human PBMCs (MSD); type: cell-based; conditions: Homo sapiens, PBMC, 30 min compound pre-incubation, 100 ng/ml LPS for 6 hrs
# Description: Peripheral venous blood was collected from healthy individuals and human peripheral blood mononuclear cells (PBMCs) were isolated from blood by Ficoll-Histopaque (Sigma-Aldrich, A0561) density gradient centrifugation. After isolation, PBMCs were stored in liquid nitrogen for later use. Upon thawing, PBMC cell viability was determined in growth medium (RPMI media supplemented with 10% fetal bovine serum, 1% Pen-Strep and 1% L-glutamine). Compounds were spotted in a 1:3 serial dilution in DMSO and diluted to the final concentration in 30 μl medium in 96 well plates (Falcon, 353072). PBMCs were added at a density of 7.5×10^4 cells per well and incubated for 30 min in a 5% CO2 incubator at 37° C. LPS stimulation was performed by addition of 100 ng/ml LPS (final concentration, Invivogen, tlrl-smlps) for 6 hrs followed by collection of cellular supernatant and the analysis of IL-1β […] and TNF cytokines levels […] via MSD technology according to manufacturers' guidelines (MSD, K15A0H).
# The IC50 values (for IL-1β) and EC50 values (TNF) were obtained on compounds of the invention/examples, and are depicted in the following table: […]
# T1 sequence (Q96P20 whole entry): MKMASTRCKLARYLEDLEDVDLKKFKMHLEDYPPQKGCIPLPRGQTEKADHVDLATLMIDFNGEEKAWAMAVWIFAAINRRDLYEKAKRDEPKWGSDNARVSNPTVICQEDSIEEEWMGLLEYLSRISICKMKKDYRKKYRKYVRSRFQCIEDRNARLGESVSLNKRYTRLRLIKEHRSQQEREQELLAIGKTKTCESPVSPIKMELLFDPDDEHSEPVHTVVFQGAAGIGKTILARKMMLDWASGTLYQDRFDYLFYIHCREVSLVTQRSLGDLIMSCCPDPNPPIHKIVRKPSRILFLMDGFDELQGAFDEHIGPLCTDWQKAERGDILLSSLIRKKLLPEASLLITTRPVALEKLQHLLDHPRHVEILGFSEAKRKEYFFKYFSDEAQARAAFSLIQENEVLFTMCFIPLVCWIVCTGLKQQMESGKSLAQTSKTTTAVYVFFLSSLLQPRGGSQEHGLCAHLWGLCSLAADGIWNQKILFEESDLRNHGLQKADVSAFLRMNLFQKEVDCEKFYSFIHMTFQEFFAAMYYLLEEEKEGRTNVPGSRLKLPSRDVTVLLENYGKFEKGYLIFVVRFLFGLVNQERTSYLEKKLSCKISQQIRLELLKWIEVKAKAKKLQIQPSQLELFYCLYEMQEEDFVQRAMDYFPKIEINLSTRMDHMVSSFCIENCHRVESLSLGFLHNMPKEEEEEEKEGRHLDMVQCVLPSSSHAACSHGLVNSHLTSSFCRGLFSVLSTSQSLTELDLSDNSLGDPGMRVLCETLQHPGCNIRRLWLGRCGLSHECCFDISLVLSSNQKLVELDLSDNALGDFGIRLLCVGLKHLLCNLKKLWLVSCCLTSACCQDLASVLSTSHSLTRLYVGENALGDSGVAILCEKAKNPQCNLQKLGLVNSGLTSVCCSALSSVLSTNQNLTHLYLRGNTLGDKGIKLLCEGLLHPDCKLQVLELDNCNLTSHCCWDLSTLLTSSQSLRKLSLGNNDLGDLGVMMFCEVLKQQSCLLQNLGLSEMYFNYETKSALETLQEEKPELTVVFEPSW
SMILES,IC50 (NLRP3),EC50 (TNF),melting point
CCc1nc2c(C(C)C)nn(CC(=O)N[C@H]3C[C@@](C)(O)C3)c(=O)c2s1 [F-11],351 nM,19400 nM,159.2 °C
CC(C)c1nn(CC(=O)N[C@H]2C[C@@](C)(O)C2)c(=O)c2sc(C(F)(F)F)nc12 [F-21],469 nM,> 20000 nM,181.4 °C
CC(C)c1nn(CC(=O)Nc2ccc3nccn3n2)c(=O)c2sc(C(C)(F)F)nc12 [F-53],215 nM,11900 nM,206.5 °C
CCc1nc2c(C(C)C)nn(CC(=O)Nc3ccnnc3)c(=O)c2s1 [F-10],274 nM,18600 nM,186.5 °C
CC(C)c1nn(CC(=O)N[C@H]2C[C@@](C)(O)C2)c(=O)c2sc(C3CC3)nc12 [F-14],55 nM,18200 nM,190.5 °C

# Further lines, results first:
IC50 (NLRP3),EC50 (TNF),melting point,SMILES
265 nM,> 20000 nM,280.9 °C,"CC(C)c1nn(CC(=O)Nc2cc(Br)c3nncn3c2)c(=O)c2sc(C3CC3)nc12 [F-41, N-(8-bromo-[1,2,4]triazolo[4,3-a]pyridin-6-yl)-2-(2-cyclopropyl-4-isopropyl-7-oxothiazolo[4,5-d]pyridazin-6(7H)-yl)acetamide]"
97 nM,6360 nM,195.8 °C,CC(C)c1nn(CC(=O)Nc2ccc3cncn3c2)c(=O)c2sc(C3CC3)nc12 [F-28]
69 nM,2160 nM,201.7 °C,CC(C)c1nn(CC(=O)Nc2ccc3nccn3n2)c(=O)c2sc(C3CC3)nc12 [F-59]
100 nM,6590 nM,195.2 °C,CC(C)c1nn(CC(=O)Nc2ccnnc2)c(=O)c2sc(C3CC3)nc12 [F-13]
692 nM,8260 nM,258 °C,CC(C)c1nn(CC(=O)Nc2ccn3ccnc3n2)c(=O)c2sc(C3CC3)nc12 [F-34]
354 nM,15700 nM,203.8 °C,CC(C)c1nn(CC(=O)Nc2ccn3ncnc3c2)c(=O)c2sc(C3CC3)nc12 [F-38]
